Laboratory results reported in the Kinase Knowledgebase extract (Sharma et al. 2016).

The compounds below were run against EGFR (mouse) (UniProt P00533). Conditions: nih3t3 fibroblast.

Point of comparison: `Cc1c(CCC(=O)O)c[nH]c1/C=C1\C(=O)Nc2cc(-c3ccccc3)ccc21`, IC50 21.8 µM. Against it:
- Cc1[nH]c(/C=C2\C(=O)Nc3cc(-c4ccccc4)ccc32)c(C)c1CCC(=O)O — within 1.5-fold, 21.9 µM
- Cc1c[nH]c(/C=C2\C(=O)Nc3ccccc32)c1CCC(=O)O — higher, > 50 µM
- COc1ccc2c(c1)NC(=O)/C2=C\c1[nH]c(C)c(CCC(=O)O)c1C — higher, > 50 µM
- COc1cccc(-c2ccc3c(c2)NC(=O)/C3=C\c2[nH]c(C)c(CCC(=O)O)c2C)c1 — within 1.5-fold, 24.1 µM
- Cc1[nH]c(/C=C2\C(=O)Nc3ccc(Br)cc32)c(C)c1CCC(=O)O — higher, > 50 µM
- COc1ccccc1-c1ccc2c(c1)NC(=O)/C2=C\c1[nH]cc(CCC(=O)O)c1C — within 1.5-fold, 19.2 µM
- Cc1c(CCC(=O)O)c[nH]c1/C=C1\C(=O)Nc2ccc(S(N)(=O)=O)cc21 — higher, > 50 µM
- Cc1[nH]c(/C=C2\C(=O)Nc3ccc(C(=O)O)cc32)c(C)c1CCC(=O)O — higher, > 50 µM
- COc1cccc(-c2ccc3c(c2)NC(=O)/C3=C\c2[nH]cc(C)c2CCC(=O)O)c1 — 2.3-fold higher, 49.2 µM
- Cc1c[nH]c(/C=C2\C(=O)Nc3ccc(Br)cc32)c1CCC(=O)O — higher, > 50 µM
- COc1ccc2c(c1)NC(=O)/C2=C\c1[nH]cc(CCC(=O)O)c1C — higher, > 50 µM
- Cc1c(CCC(=O)O)c[nH]c1/C=C1\C(=O)Nc2ccc(C(=O)O)cc21 — higher, > 50 µM
- CCOc1cccc(-c2ccc3c(c2)NC(=O)/C3=C\c2[nH]cc(C)c2CCC(=O)O)c1 — higher, > 50 µM
- Cc1c(CCC(=O)O)c[nH]c1/C=C1\C(=O)Nc2ccccc21 — higher, > 50 µM
- Cc1c[nH]c(/C=C2\C(=O)Nc3cccc(C)c32)c1CCC(=O)O — within 1.5-fold, 28.8 µM
